In patent publication US20060030609A1, “Oxazolidinones containing oxindoles as antibacterial agents” (priority 2004, published 2006):
In brackets after ≈: the same amount, converted by molar mass.

Key:
Assay in all cases: in vitro antibacterial activity (MIC, NCCLS dilution)
Format in all cases: cell-based
[1] = system: E.faecalis MGH-2 EF 1-1; details: Enterococcus faecalis, MGH2EF11
Text: (§1) The in vitro antibacterial activity of the compounds of the present invention may be assessed by following procedures recommended in (1) National Committee for Clinical Laboratory Standards (January 2003), Methods for dilution antimicrobial tests for bacteria that grow aerobically, Approved Standard (6th ed), M7-A6, NCCLS, Wayne, Pa.; (2) National Committee for Clinical Laboratory Standards (March 2001), Method for antimicrobial susceptibility testing of anaerobic bacteria, Approved Standard (5th ed), M11-A4, NCCLS, Wayne, Pa.; (3) National Committee for Clinical Laboratory Standards (January 2003), MIC testing supplemental tables, M100-S13 (for use with M7-A6), NCCLS, Wayne, Pa.; and (4) Murray P R, Baron E J, Jorgensen J H, et al. Manual of Clinical Microbiology (8th ed) Washington, D.C.: American Society for Microbiology Press, 2003. The MJC value is the lowest concentration of drug which prevented macroscopically visible growth under the conditions of the test.

[2] = system: S. aureus UC-76 SA-1; details: Staphylococcus aureus, UC76
Text: as §1

[3] = system: S. pneumoniae SV1 SP-3; details: Streptococcus pneumoniae, SV1SP3
Text: as §1

| SMILES | MIC90 [1] | MIC90 [2] | MIC90 [3] |
| --- | --- | --- | --- |
| CN1C(=O)Cc2cc(N3C[C@H](C(N)=O)OC3=O)cc(F)c21 [Example 3, (5R)-3-(7-fluoro-1-methyl-2-oxo-2,3-dihydro-1H-indol-5-yl)-2-oxo-oxazolidine-5-carboxylic acid amide] | 16 µg/mL (≈ 54.6 µM) | 16 µg/mL (≈ 54.6 µM) | 16 µg/mL (≈ 54.6 µM) |
| CNC(=O)[C@H]1CN(c2ccc3c(c2)CC(=O)N3C(C)C)C(=O)O1 [Example 9, (5R)-3-(1-isopropyl-2-oxo-2,3-dihydro-1H-indol-5-yl)-2-oxo-oxazolidine-5-carboxylic acid methylamide] | 8 µg/mL (≈ 25.2 µM) | 8 µg/mL (≈ 25.2 µM) | 4 µg/mL (≈ 12.6 µM) |
| NC(=O)[C@H]1CN(c2ccc3c(c2)CC(=O)N3C2CC2)C(=O)O1 [Example 11, (5R)-3-(1-cyclopropyl-2-oxo-2,3-dihydro-1H-indol-5-yl)-2-oxo-oxazolidine-5-carboxylic acid amide] | 16 µg/mL (≈ 53.1 µM) | 8 µg/mL (≈ 26.6 µM) | 8 µg/mL (≈ 26.6 µM) |
| CNC(=O)[C@H]1CN(c2ccc3c(c2)CC(=O)N3C2CC2)C(=O)O1 [Example 12, (5R)-3-(1-cyclopropyl-2-oxo-2,3-dihydro-1H-indol-5-yl)-2-oxo-oxazolidine-5-carboxylic acid methylamide] | 16 µg/mL (≈ 50.7 µM) | 8 µg/mL (≈ 25.4 µM) | 8 µg/mL (≈ 25.4 µM) |
| CCCN1C(=O)Cc2cc(N3C[C@H](C(N)=O)OC3=O)ccc21 [Example 13, (R)-2-oxo-3-(2-oxo-1-propyl-2,3-dihydro-1H-indol-5-yl)-oxazolidine-5-carboxylic acid amide] | 8 µg/mL (≈ 26.4 µM) | 4 µg/mL (≈ 13.2 µM) | 8 µg/mL (≈ 26.4 µM) |
| CCCN1C(=O)Cc2cc(N3C[C@H](C(N)=O)OC3=O)cc(F)c21 [Example 15, (R)-3-(7-fluoro-2-oxo-1-propyl-2,3-dihydro-1H-indol-5-yl)-2-oxo-oxazolidine-5-carboxylic acid amide] | 8 µg/mL (≈ 24.9 µM) | 4 µg/mL (≈ 12.4 µM) | 8 µg/mL (≈ 24.9 µM) |
| CC(C)(C)N1C(=O)Cc2cc(N3C[C@H](C(N)=O)OC3=O)ccc21 [Example 16] | 16 µg/mL (≈ 50.4 µM) | 8 µg/mL (≈ 25.2 µM) | 16 µg/mL (≈ 50.4 µM) |
| CCC(C)N1C(=O)Cc2cc(N3C[C@H](C(N)=O)OC3=O)ccc21 (stereo partly drawn) [Example 17, (R)-3-(1-sec-butyl-2-oxo-2,3-dihydro-1H-indol-5-yl)-2-oxo-oxazolidine-5-carboxylic acid amide] | 8 µg/mL (≈ 25.2 µM) | 4 µg/mL (≈ 12.6 µM) | 8 µg/mL (≈ 25.2 µM) |
| CCC(C)N1C(=O)Cc2cc(N3C[C@H](C(=O)NC)OC3=O)ccc21 (stereo partly drawn) [Example 18, (R)-3-(1-sec-butyl-2-oxo-2,3-dihydro-1H-indol-5-yl)-2-oxo-oxazolidine-5-carboxylic acid methylamide] | 8 µg/mL (≈ 24.1 µM) | 8 µg/mL (≈ 24.1 µM) | 8 µg/mL (≈ 24.1 µM) |
| CC(C)CN1C(=O)Cc2cc(N3C[C@H](C(N)=O)OC3=O)ccc21 [Example 20, (R)-3-(1-Isobutyl-2-oxo-2,3-dihydro-1H-indol-5-yl)-2-oxo-oxazolidine-5-carboxylic acid amide] | 64 µg/mL (≈ 202 µM) | 64 µg/mL (≈ 202 µM) | 64 µg/mL (≈ 202 µM) |
| CNC(=O)[C@H]1CN(c2ccc3c(c2)CC(=O)N3CC(C)C)C(=O)O1 [Example 21, (R)-3-(1-isobutyl-2-oxo-2,3-dihydro-1H-indol-5-yl)-2-oxo-oxazolidine-5-carboxylic acid methylamide] | 64 µg/mL (≈ 193 µM) | 64 µg/mL (≈ 193 µM) | 64 µg/mL (≈ 193 µM) |
| NC(=O)[C@H]1CN(c2ccc3c(c2)CC(=O)N3C2CCC2)C(=O)O1 [Example 22, (R)-3-(1-cyclobutyl-2-oxo-2,3-dihydro-1H-indol-5-yl)-2-oxo-oxazolidine-5-carboxylic acid amide] | 64 µg/mL (≈ 203 µM) | 32 µg/mL (≈ 101 µM) | 64 µg/mL (≈ 203 µM) |
| CNC(=O)[C@H]1CN(c2ccc3c(c2)CC(=O)N3C2CCC2)C(=O)O1 [Example 23, (R)-3-(1-cyclobutyl-2-oxo-2,3-dihydro-1H-indol-5-yl)-2-oxo-oxazolidine-5-carboxylic acid methylamide] | 64 µg/mL (≈ 194 µM) | 16 µg/mL (≈ 48.6 µM) | 32 µg/mL (≈ 97.2 µM) |

Stronger by MIC90 [1], values ahead:

| MIC90 [1] | MIC90 [2] | MIC90 [3] | SMILES |
| --- | --- | --- | --- |
| 4 µg/mL (≈ 14.5 µM) | 2 µg/mL (≈ 7.27 µM) | 2 µg/mL (≈ 7.27 µM) | CN1C(=O)Cc2cc(N3C[C@H](C(N)=O)OC3=O)ccc21 [Example 1, (5R)-3-(1-methyl-2-oxo-2,3-dihydro-1H-indol-5-yl)-2-oxo-oxazolidine-5-carboxylic acid amide] |
| 4 µg/mL (≈ 13.8 µM) | 2 µg/mL (≈ 6.91 µM) | 2 µg/mL (≈ 6.91 µM) | CNC(=O)[C@H]1CN(c2ccc3c(c2)CC(=O)N3C)C(=O)O1 [Example 2] |
| 4 µg/mL (≈ 13.8 µM) | 4 µg/mL (≈ 13.8 µM) | 2 µg/mL (≈ 6.91 µM) | CCN1C(=O)Cc2cc(N3C[C@H](C(N)=O)OC3=O)ccc21 [Example 4, (5R)-3-(1-ethyl-2-oxo-2,3-dihydro-1H-indol-5-yl)-2-oxo-oxazolidine-5-carboxylic acid amide] |
| 4 µg/mL (≈ 13.2 µM) | 4 µg/mL (≈ 13.2 µM) | 4 µg/mL (≈ 13.2 µM) | CCN1C(=O)Cc2cc(N3C[C@H](C(=O)NC)OC3=O)ccc21 [Example 5] |
| 4 µg/mL (≈ 13 µM) | 4 µg/mL (≈ 13 µM) | 4 µg/mL (≈ 13 µM) | NC(=O)[C@H]1CN(c2ccc3c(c2)CC(=O)N3CCF)C(=O)O1 [Example 6] |
| 4 µg/mL (≈ 12.4 µM) | 4 µg/mL (≈ 12.4 µM) | 4 µg/mL (≈ 12.4 µM) | CNC(=O)[C@H]1CN(c2ccc3c(c2)CC(=O)N3CCF)C(=O)O1 [Example 7] |
| 4 µg/mL (≈ 13.2 µM) | 4 µg/mL (≈ 13.2 µM) | 4 µg/mL (≈ 13.2 µM) | CC(C)N1C(=O)Cc2cc(N3C[C@H](C(N)=O)OC3=O)ccc21 [Example 8] |
| 4 µg/mL (≈ 12.4 µM) | 4 µg/mL (≈ 12.4 µM) | 4 µg/mL (≈ 12.4 µM) | CC(C)N1C(=O)Cc2cc(N3C[C@H](C(N)=O)OC3=O)cc(F)c21 [Example 10, (5R)-3-(7-fluoro-1-isopropyl-2-oxo-2,3-dihydro-1H-indol-5-yl)-2-oxo-oxazolidine-5-carboxylic acid amide] |
| 4 µg/mL (≈ 12.6 µM) | 4 µg/mL (≈ 12.6 µM) | 4 µg/mL (≈ 12.6 µM) | CCCN1C(=O)Cc2cc(N3C[C@H](C(=O)NC)OC3=O)ccc21 [Example 14, (R)-2-oxo-3-(2-oxo-1-propyl-2,3-dihydro-1H-indol-5-yl)-oxazolidine-5-carboxylic acid methylamide] |
| 4 µg/mL (≈ 12.4 µM) | 4 µg/mL (≈ 12.4 µM) | 4 µg/mL (≈ 12.4 µM) | CC(CF)N1C(=O)Cc2cc(N3C[C@H](C(N)=O)OC3=O)ccc21 (stereo partly drawn) [Example 19, (R)-3-[1-(2-fluoro-1-methyl-ethyl)-2-oxo-2,3-dihydro-1H-indol-5-yl]-2-oxo-oxazolidine-5-carboxylic acid amide] |
